Consider one compound from patent publication US20190070182A1, “USES OF PYRIMIDO-PYRIDAZINONES TO TREAT CANCER” (Asana Biosciences, LLC, priority 2015, published 2019).

In general, IC50 refers to the point on the concentration scale where inhibition reaches its midpoint.

For assay [1], the system named is Pfeiffer ("Parental") DLBCL cell line. The experiment in a line: cell proliferation, Pfeiffer parental. Format: cell-based. To be noted: Homo sapiens. The protocol: (§1) This activity of ASN002 was assessed using a diffuse large B-cell lymphoma (DLBCL) cell line, Pfeiffer (“Parental”); and an ibrutinib-resistant variant of the same cell line (“Ibrutinib-R”), which was developed by growing the cells in the presence of increasing concentrations of ibrutinib. Pools of ibrutinib-resistant cells were tested in this study. The drug idelalisib (which was approved by the FDA in […] for the treatment of B-cell blood cancers) was used for comparison as a reference compound. The data are set forth in Table A (IC50 is the half maximal inhibitory concentration).

Assay [2] has as its system ibrutinib-resistant variant of Pfeiffer ("Ibrutinib-R"). The experiment in a line: cell proliferation, ibrutinib-resistant Pfeiffer. The class given is cell-based. To be noted: Homo sapiens, pools of resistant cells. The protocol: as §1

Turning to `C=CC(=O)N1CCC[C@@H](n2nc(-c3ccc(Oc4ccccc4)cc3)c3c(N)ncnc32)C1` [Ibrutinib, ibrutinib], the results for the IC50 in assay [1] and in assay [2] were 0.27 µM and 4.5 µM, respectively.
